Measured values: paper PMC12495443, “Developing inhibitors of the guanosine triphosphate hydrolysis accelerating activity of Regulator of G protein Signaling-14 [drawing 1]” (The Journal of Biological Chemistry, 2025)

Target: T1, RGS14 RGS-box (GAP activity on wild-type Gαi1) (Homo sapiens, UniProt O43566)
T1 sequence (O43566 67-184 limits assumed): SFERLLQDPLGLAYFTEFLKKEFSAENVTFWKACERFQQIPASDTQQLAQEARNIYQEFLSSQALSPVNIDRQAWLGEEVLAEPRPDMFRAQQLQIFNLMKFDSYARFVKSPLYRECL
Experiment: Single-turnover [γ-33P]GTP hydrolysis assay of RGS-box GAP activity
Format: biochemical
Settings: wild-type Gαi1, concentration-dependent
Description: To further evaluate the functional activity of these triazolothiadiazine derivatives, and especially to eliminate concerns of misascribing GAP-inhibitory activity to potential assay interference, we tested two representative compounds—Z55660043 and Z55627844—in the gold-standard single-turnover radioactive GTP hydrolysis assay ([7], [58]) (Fig. 6).
The single-turnover radiolabeled-GTP hydrolysis assay is the gold standard assay for RGS-box GAP activity, first described using [γ -^32P]GTP by Berman et al. ([7]) and recently modified for modern performance ([91], [92], [93], [94]) to use readily available [γ-^33P]GTP substrate and perchloric acid quenching. The assay was performed by first pre-loading wild-type (WT) Gα protein (i.e., 750 nM purified, recombinant, wild-type-sequence human Gαi1 protein) with a slight excess (1 μM) of [γ-^33P]GTP for 15 min at 30 °C. Assay initiation involved adding purified recombinant RGS protein previously pre-incubated for 30 min at 30 °C with a candidate inhibitor. […] Supernatant aliquots were then added to liquid scintillation fluid and [^33P]-Pi content (i.e., hydrolyzed GTP) was quantified with a scintillation counter with an appropriate β-transmission window.

COc1ccc(OCc2nnc3n2N=C(c2ccc(OC)c(OC)c2)CS3)cc1 [Z55660043, 6-(3,4-dimethoxyphenyl)-3-[(4-methoxy-phenoxy)methyl]-5H-[1,2,4]triazolo[3,4-b][1,3,4]thiadiazine]
inhibition of RGS14 RGS-box-mediated acceleration of [γ-33P]GTP hydrolysis: inhibit RGS14 RGS-box-mediated acceleration
